One test deals with NCI-H358(KRAS^G12C mutation) cells. The test is described as follows: Cell assay of antiproliferative activity (Celltiter-Glo, 5 days) against NCI-H358 cells. The test is classed as cell-based. The following applies: 5 days incubation. On the procedure:
Cell assay of antiproliferative activity of compounds against NCI-H358(KRAS^G12C mutation) and A549(KRAS^G12S mutation) cells.
40 μl phosphate buffer was added to the outer wells of the 384 microplate, and 40 μl cell suspension to be tested was added to the other wells. Then the microplate was incubated in a carbon dioxide incubator overnight.
The compounds to be tested were gradiently diluted, each compound was performed 10 concentration gradients (diluted from 50 μM to 0.003 μM) and added 100 nL to the corresponding wells in the microplate. After addition, 40 μl of phosphate buffer was added to each well in rows A and P and columns 1 and 24, and then the microplate was incubated in a carbon dioxide incubator for 5 days.
20 μL of Promega Celltiter-Glo reagent was added to each well of the microplate, and then the luminescence signal was stabilized by oscillating at room temperature for 10 min. Then PekinElmer Envision multi-label analyzer was used to read.
Finally, GraphPad Prism software was used to calculate the IC50 value of the compound and the fitting curve was drawn.
Anti-proliferative activity of the compounds of the present invention against NCI-H358(KRAS^G12C mutation) and A549(KRAS^G12S mutation) cells were shown in Table 1.
With `C=CC(=O)N1CCN(c2nc(OCC3(CN(C)C)CC3)nc3c2CC(C)N(c2cccc4cccc(Cl)c24)C3)CC1CC#N` (single isomer, unassigned) [Example 29A, 2-(1-acroloyl-4-(7-(8-chloronaphthalen-1-yl)-2-((1-((dimethylamino)methyl)cyclopropyl)methoxyl)-6-methyl-5,6,7,8-tetrahydropyrido [3,4-d]pyrimidin-4-yl)piperazin-2-yl) acetonitrile], the IC50 turned out to be 0.36 µM. `C=CC(=O)N1CCN(c2nc(OCC3(CN(C)C)CC3)nc3c2CC(C)N(c2cccc4cccc(Cl)c24)C3)CC1CC#N` (single isomer, unassigned) [Example 29B, 2-(1-acroloyl-4-(7-(8-chloronaphthalen-1-yl)-2-((1-((dimethylamino)methyl)cyclopropyl)methoxyl)-6-methyl-5,6,7,8-tetrahydropyrido [3,4-d]pyrimidin-4-yl)piperazin-2-yl) acetonitrile] yielded an IC50 of 0.053 µM. In the case of `C=CC(=O)N1CCN(c2nc(OCC3(CN(C)C)CC3)nc3c2CC(C)N(c2cccc4cccc(Cl)c24)C3)CC1CC#N` (single isomer, unassigned) [Example 29C, 2-(1-acroloyl-4-(7-(8-chloronaphthalen-1-yl)-2-((1-((dimethylamino)methyl)cyclopropyl)methoxyl)-6-methyl-5,6,7,8-tetrahydropyrido [3,4-d]pyrimidin-4-yl)piperazin-2-yl) acetonitrile], 0.1 µM corresponded to half-maximal inhibition (IC50). In the case of `C=CC(=O)N1CCN(c2nc(OCC3(CN(C)C)CC3)nc3c2CC(C)N(c2cccc4cccc(Cl)c24)C3)CC1CC#N` (single isomer, unassigned) [Example 29D, 2-(1-acroloyl-4-(7-(8-chloronaphthalen-1-yl)-2-((1-((dimethylamino)methyl)cyclopropyl)methoxyl)-6-methyl-5,6,7,8-tetrahydropyrido [3,4-d]pyrimidin-4-yl)piperazin-2-yl) acetonitrile], 0.006 µM corresponded to half-maximal inhibition (IC50). In turn, `C=CC(=O)N1CCN(c2nc(OCCN(C)C3(C)CCC3)nc3c2CCN(c2cccc4cccc(Cl)c24)C3)CC1CC#N` (centres unmarked) [Example 23, 2-(1-acroloyl-4-(7-(8-chloronaphthalen-1-yl)-2-(2-(methyl(1-methylcyclobutyl)amino)ethoxy)-5,6,7,8-tetrahydropyrido[3,4-d]pyrimidin-4-yl)piperazin-2-yl) acetonitrile] displayed an IC50 of 0.013 µM. `C=CC(=O)N1CCN(c2nc(OCC3(CNC)CC3)nc3c2CCN(c2cccc4cccc(Cl)c24)C3)CC1CC#N` (centres unmarked) [Example 26, 2-(1-acroloyl-4-(7-(8-chloronaphthalen-1-yl)-2-((1-((methylamino)methyl)cyclopropyl)methoxy)-5,6,7,8-tetrahydropyrido[3,4-d]pyrimidin-4-yl)piperazin-2-yl) acetonitrile] had an IC50 of 0.062 µM.

The same test, now with this note: Homo sapiens, NCI-H358, 120 h, 5 days incubation.
For `C=C(F)C(=O)N1CCN(c2nc(OCC3(CN(C)C)COC3)nc3c2CCN(c2cccc4cccc(Cl)c24)C3)CC1CC#N` (centres unmarked) [Example 25, 2-(4-(7-(8-chloronaphthalen-1-yl)-2-((3-((dimethylamino)methyl)oxetan-3-yl)methoxy)-5,6,7,8-tetrahydropyrido[3,4-d]pyrimidin-4-yl)-1-(2-fluoroacroloyl)piperazin-2-yl) acetonitrile], the IC50 was 0.059 µM.

Regarding `C=C(F)C(=O)N1CCN(c2nc(OCC3(CN(C)C)CC3)nc3c2CCN(c2cccc4ccc(F)c(Cl)c24)C3)C[C@@H]1CC#N` [Example 28], the IC50 was determined as 0.008 µM. Take `C=CC(=O)N1CCN(c2nc(OCC3(N(C)C)CC3)nc3c2CCN(c2cccc4cccc(Cl)c24)C3)CC1CC#N` (centres unmarked) [Example 30]: the IC50 amounted to 0.041 µM. `C=CC(=O)N1CCN(c2nc(OCCN(C)C3(COC)CCC3)nc3c2CCN(c2cccc4cccc(Cl)c24)C3)CC1CC#N` (centres unmarked) [Example 31, 2-(acroloyl-4-(7-(8-chloronaphthalen-1-yl)-2-(2-((1-(methoxymethyl)cyclobutyl)(methyl)amino)ethoxy)-5,6,7,8-tetrahydropyrido[3,4-d]pyrimidin-4-yl)piperazin-2-yl) acetonitrile] yielded a half-inhibitory concentration (IC50) of 0.073 µM. Turning to `C=CC(=O)N1CCN(c2nc(OCC3(CN(C)C4CC4)COC3)nc3c2CCN(c2cccc4cccc(Cl)c24)C3)CC1CC#N` (centres unmarked) [Example 32, 2-(1-acroloyl-4-(7-(8-chloronaphthalen-1-yl)-2-((3-((cyclopropyl(methyl)amino)methyl)oxetan-3-yl)methoxyl)-5,6,7,8-tetrahydropyrido[3,4-d]pyrimidin-4-yl)piperazin-2-yl) acetonitrile], the IC50 worked out at 0.12 µM.

For `C=C(F)C(=O)N1CCN(c2nc(OCCN(C)C3(C)CCC3)nc3c2CCN(c2cccc4ccc(F)c(Cl)c24)C3)CC1CC#N` (centres unmarked) [Example 33, 2-(4-(7-(8-chloro-7-fluoronaphthalen-1-yl)-2-(2-(methyl(1-methylcyclobutyl)amino)ethoxy)-5,6,7,8-tetrahydropyrido[3,4-d]pyrimidin-4-yl)-1-(2-fluoroacroloyl)piperazin-2-yl) acetonitrile], inhibition was half-maximal at 0.066 µM (IC50). On the same count and under the same terms, then `C=CC(=O)N1C[C@@H](C)N(c2nc(OCC3(CN(C)C)CC3)nc3c2CCN(c2cccc4cccc(Cl)c24)C3)C[C@@H]1C` [Example 34, 1-((2S,5R)-4-(7-(8-chloronaphthalen-1-yl)-2-((1-((dimethylamino)methyl)cyclopropyl)methoxyl)-5,6,7,8-tetrahydropyrido[3,4-d]pyrimidin-4-yl)-2,5-dimethylpiperazin-1-yl)prop-2-ene-1-one], with 1.9 µM; and `C=C(F)C(=O)N1CCN(c2nc(OCC3(CN(C)C)CC3)nc3c2CCN(c2c(C)ccc4[nH]ncc24)C3)C[C@@H]1CC#N` [Example 35], with 0.31 µM; and `[2H]C([2H])([2H])N(CC1(COc2nc3c(c(N4CCN(C(=O)C(=C)F)[C@@H](CC#N)C4)n2)CCN(c2c(C)ccc4[nH]ncc24)C3)CC1)C([2H])([2H])[2H]` [Example 36], with 0.25 µM.

Molecule `C=CC(=O)N1[C@@H]2CC[C@H]1CN(c1nc(OCC3(CN(C)C)CC3)nc3c1CCN(c1cccc4cccc(Cl)c14)C3)C2` [Example 37, 1-((1R,5S)-3-(7-(8-chloronaphthalen-1-yl)-2-((1-((dimethylamino)methyl)cyclopropyl)methoxyl)-5,6,7,8-tetrahydropyrido[3,4-d]pyrimidin-4-yl)-3,8-diazabicyclo[3.2.1]octane-8-yl)prop-2-ene-1-one] came in with an IC50 of 1.4 µM.

In turn, `C=CC(=O)N1CC2CN(c3nc(OCC4(CN(C)C)CC4)nc4c3CCN(c3cccc5cccc(Cl)c35)C4)CC2C1` (centres unmarked) [Example 38, 1-(5-(7-(8-chloronaphthalen-1-yl)-2-((1-((dimethylamino)methyl)cyclopropyl)methoxyl)-5,6,7,8-tetrahydropyrido[3,4-d]pyrimidin-4-yl)hexahydropyrrolo[3,4-c]pyrrole-2(1H)-yl)prop-2-ene-1-one] returned an IC50 of 4.9 µM.

`C=CC(=O)N1CCN(c2nc(OCC3(CN(C)C)CC3)nc3c2CCN(c2cccc4cccc(Cl)c24)C3)CC12CC2` [Example 39, 1-(7-(7-(8-chloronaphthalen-1-yl)-2-((1-((dimethylamino)methyl)cyclopropyl)methoxyl)-5,6,7,8-tetrahydropyrido[3,4-d]pyrimidin-4-yl)-4,7-diazaspiro[2.5]octane-4-yl)prop-2-ene-1-one]: the IC50 turned out to be 2.5 µM.

With `C=CC(=O)N1CC2(C1)CN(c1nc(OCC3(CN(C)C)CC3)nc3c1CCN(c1cccc4cccc(Cl)c14)C3)C2` [Example 40, 1-(6-(7-(8-chloronaphthalen-1-yl)-2-((1-((dimethylamino)methyl)cyclopropyl)methoxyl)-5,6,7,8-tetrahydropyrido[3,4-d]pyrimidin-4-yl)-2,6-diazaspiro[3.3]heptane-2-yl)prop-2-ene-1-one], inhibition was half-maximal at 0.3 µM (IC50). The molecule `C=CC(=O)N1CCN(c2nc(OCC3(CN(C)C)CC3)nc3c2CCN(c2cccc4cccc(Cl)c24)C3)CC1C(F)(F)F` (centres unmarked) [Example 41, 1-(-4-(7-(8-chloronaphthalen-1-yl)-2-((1-((dimethylamino)methyl)cyclopropyl)methoxyl)-5,6,7,8-tetrahydropyrido[3,4-d]pyrimidin-4-yl)-2-(trifluoromethyl)piperazin-1-yl)prop-2-ene-1-one] gave an IC50 of 1.4 µM. In turn, `C=CC(=O)N1CC2CC1CN2c1nc(OCC2(CN(C)C)CC2)nc2c1CCN(c1cccc3cccc(Cl)c13)C2` (centres unmarked) [Example 42, 1-(5-(7-(8-chloronaphthalen-1-yl)-2-((1-((dimethylamino)methyl)cyclopropyl)methoxyl)-5,6,7,8-tetrahydropyrido[3,4-d]pyrimidin-4-yl)-2,5-diazabicyclo[2.2.1]heptane-2-yl)prop-2-ene-1-one] had a half-inhibitory concentration (IC50) of 5.5 µM.

With `C=CC(=O)N1CC2CCC1CN2c1nc(OCC2(CN(C)C)CC2)nc2c1CCN(c1cccc3cccc(Cl)c13)C2` (centres unmarked) [Example 43, 1-(5-(7-(8-chloronaphthalen-1-yl)-2-((1-((dimethylamino)methyl)cyclopropyl)methoxyl)-5,6,7,8-tetrahydropyrido[3,4-d]pyrimidin-4-yl)-2,5-diazabicyclo[2.2.2]octane-2-yl)prop-2-ene-1-one], the IC50 worked out at 0.83 µM. `C=CC(=O)N1CC2(CCN(c3nc(OCC4(CN(C)C)CC4)nc4c3CCN(c3cccc5cccc(Cl)c35)C4)C2)C1` [Example 44, 1-(6-(7-(8-chloronaphthalen-1-yl)-2-((1-((dimethylamino)methyl)cyclopropyl)methoxyl)-5,6,7,8-tetrahydropyrido[3,4-d]pyrimidin-4-yl)-2,6-diazaspiro[3.4]octane-2-yl)prop-2-ene-1-one] displayed an IC50 of 3.3 µM.

Source of the values: patent US11459327B1, “Cycloalkyl and hetero-cycloalkyl inhibitors, preparation methods therefor, and use thereof” (Suzhou Zelgen Biopharmaceuticals Co., Ltd., priority 2019, dated 2022).
